In US10875861B1, “Therapeutic compounds” (Rutgers, The State University of New Jersey, priority 2017, dated 2020):

Tested on: BMI-1 protein
Test: Inhibition of BMI-1 protein levels in U87 cells (Western blotting)
Format: cell-based
Conditions: U87 cells, 72 hours, different concentrations
Experimental: U87 cells were treated with DMSO or different concentrations of compound B1 for 72 hours. Cells were lysed in Cell Lysis Buffer (Cell Signaling, #9803) supplemented with Protease Inhibitor Cocktail (Sigma, #P8340), sonicated briefly while on ice and spun down for 30 minutes at 4° C., after which the supernatant was collected. For each sample, 2 uL of lysate was mixed well into 198 uL de-ionized water. Next, 10 uL of this diluted sample was added to a well in a 96 well plate in quadruplets and mixed with Protein Assay Dye Reagent Concentrate (Bio-Rad, #500-0006) (which was diluted 1:5 with water). BSA standards of 25 ng, 50 ng, 100 ng, 200 ng and 250 ng were also used to the plate and mixed with the reagent. The plate was read in a plate reader at 600 nm and samples were calibrated to the standards to determine the concentration of protein. Using the NuPAGE system (Invitrogen), 25 ug of protein was mixed with NuPAGE LDS 4× Sample Buffer (#NP0007), NuPAGE 10× Reducing Agent (#NP0004) and water, mixed well and heated at 96° C. for 15 minutes to denature the protein. […] Protein signals were detected using ECL Western Blotting Substrate (Pierce, #32106) and filmed.
U87 cells were treated with DMSO or different concentrations of the inhibitors for 72 hours. […] The plate was read in a plate reader at 600 nm and samples were calibrated to the standards to determine the concentration of protein. […]

## COc1ccc(Nc2nc(-c3nc4ncccn4c3C)cs2)cc1 [Example B1, N-(4-methoxyphenyl)-4-(3-methylimidazo[1,2-a]pyrimidin-2-yl)thiazol-2-amine]
  BMI-1 protein levels in U87 cells (Test C): inhibition of BMI-1 protein levels
